Test results published in US20200197341A1, “IMMUNMODULATION FOR PREVENTION OF POOR HEALING OF MUSCULOSKELETAL INJURIES IN COMPROMISED PATIENTS” (CHARITÉ UNIVERSITÄTSMEDIZIN BERLIN, priority 2017, published 2020).
“Also recorded” adds a separate entry of the source.

How the values were obtained:
[1] = test system: drill hole in the diaphyseal and metaphyseal bone; assay: Sheep drill hole bone healing model, μCT evaluation of bone formation; format: in vivo; settings: after 3 and 9 weeks, Iloprost in collagen scaffold (burst release), applied immediately, 1 ml Ilomedin per two scaffolds
Excerpt: Prior publications, e.g. US 20150164853 A1, stated that immediate use of Iloprost locally to enhance bone healing is beneficial. To investigate this a high dose of Iloprost was used in a sheep bone healing model where the agent was applied in a collagen scaffold, which has a burst-release dynamic.
Bone formation has been analyzed in a drill hole model (Establishment of a preclinical ovine screening model for the investigation of bone tissue engineering strategies in cancellous and cortical bone defects. Pobloth A M, Johnson K A, Schell H, Kolarczik N, Wulsten D, Duda G N, Schmidt-Bleek K. BMC Musculoskelet Disord. 2016 Mar. 1; 17:111.). The empty control group and the collagen only group were used as negative controls while the autologous spongiosa group, the current gold standard in bone therapy, was used as a positive control. In the Ilomedin group a supraphysiological dosis of 1 ml Iloprost (Ilomedin, […] Infusionslosung, Bayer Vital GmbH, Leverkusen, Deutschland) per two scaffolds was used.

[2] = test system: femur mouse osteotomies; assay: Mouse femur osteotomy with fibrin release system, μCT of newly formed bone; format: in vivo
Protocol: Mouse experiments were performed with 12-week-old C57BL/6 females (n=6, each sample type) (Charles River Laboratories) according to the policies and principles established by the Animal Welfare Act, the National Institutes of Health Guide for the Care and Use of Laboratory Animals, and the National Animal Welfare Guidelines. All animal experiments were approved by the local legal representative. Animals were kept under obligatory hygiene standards that were monitored according to the FELASA standards.
The osteotomy was performed on the left femur. After shaving and disinfecting the operation area of isoflurane-anesthetized animals, a lateral longitudinal incision of the skin (2 mm) from knee to hip was performed for a mid-diaphyseal approach to the femur. The femur was exposed by blunt preparation of Musculus vastus lateralis and Muscculus biceps femoris, carefully sparing the sciatic nerve. Serial drilling for pin placement (0.45 mm diameter) through the connector bar of the external fixator (MouseExFix, RlSystem, Davos, Switzerland) was performed, thus positioning the external fixator laterally in parallel to the femur. A 0.70 mm osteotomy was performed between the middle pins using a Gigli wire saw (RISystem, Davos, Switzerland). […]
The newly formed mineralized bone tissues were analyzed using high-resolution micro computed tomography (μCT). […]

## CC#CCC(C)[C@H](O)/C=C/[C@@H]1[C@H]2C/C(=C/CCCC(=O)O)C[C@H]2C[C@H]1O (stereo partly drawn) [Iloprost]
[1]
  bone formation in a drill hole (μCT): No differences between the collagen group and the collagen Iloprost loaded group; also recorded: no enhanced bone formation was detectable
[2]; mouse femur osteotomy, 21 days healing, fibrin release system with 3 μM Iloprost in core, median, N=6, p=0.016 vs vehicle
  newly formed bone volume (BV): 1.347 mm^3
[2]; mouse, after 21 days of regeneration, Iloprost loaded release system
  volumes of newly formed bone vs empty vehicle control (μCT): significantly increased volumes of newly formed bone
